Where a SMILES comes first, the peptide text is derived from it. Bridges are numbered along the chain shown (N, C = ends). [ ]: non-standard residue; d: D form. The star is where a group is joined. d(aIle) = CC[C@H](C)[C@@H](N)C(=O)O; d(aThr) = C[C@@H](O)[C@@H](N)C(=O)O; Hexanoyl(5-Me) = CC(C)CCCC(=O)*; Myristoyl = CCCCCCCCCCCCCC(=O)*; Orn = NCCC[C@H](N)C(=O)O; Dhb = C/C=C(\N)C(=O)O
How the values were obtained:
Format in all cases: cell-based, human
SK-OV-3 = test: SRB colorimetric assay of cell growth and viability, SK-OV-3; details: 48 hours exposure; for GI50: read-out: GI50 SKOV-3; for CC50: read-out: LC50 SKOV-3
From the text: The finality of this assay is to interrupt the growth of a “in vitro” tumor cell culture by means a continued exhibition of the cells to the sample to be testing.
A colorimetric type of assay, using sulforhodamine B (SRB) reaction has been adapted for a quantitative measurement of cell growth and viability [following the technique described by Philip Skehan, et al. (1990), New colorimetric cytotoxicity assay for anticancer drug screening, J. Natl. Cancer Inst., 82:1107-1112].
This form of the assay employs 96 well cell culture microplates of 9 mm diameter (Faircloth, 1988; Mosmann, 1983). Most of the cell lines are obtained from American Type Culture Collection (ATCC) derived from different human cancer types.
Cells are maintained in RPMI 1640 10% FBS, supplemented with 0.1 g/l penicillin and 0.1 g/l streptomycin sulfate and then incubated at 37° C., 5% CO2 and 98% humidity. For the experiments, cells were harvested from subconfluent cultures using trypsin and resuspended in fresh medium before plating.
Cells are seeded in 96 well microtiter plates, at 5×10^3 cells per well in aliquots of 195 μL medium, and they are allowed to attach to the plate surface by growing in drug free medium for 18 hours. Afterward, samples are added in aliquots of 5 μL in a ranging from 10 to 10^−8 μg/mL, dissolved in DMSO:EtOH:PBS (0.5:0.5:99). After 48 hours exposure, the antitumor effect are measured by the SRB methodology: cells are fixed by adding 50 μL of cold 50% (wt/vol) trichloroacetic acid (TCA) and incubating for 60 minutes at 4° C. Plates are washed with deionized water and dried. One hundred μL of SRB solution (0.4% wt/vol in 1% acetic acid) is added to each microtiter well and incubated for 10 minutes at room temperature. Unbound SRB is removed by washing with 1% acetic acid. Plates are air dried and bound stain is solubilized with Tris buffer. Optical densities are read on a automated spectrophotometric plate reader at a single wavelength of 490 nm.
The values for mean+/− SD of data from triplicate wells are calculated. Some parameters for cellular responses can be calculated: GI=growth inhibition, TGI=total growth inhibition (cytostatic effect) and LC=cell killing (cytotoxic effect).

IGROV-ET = test: SRB colorimetric assay of cell growth and viability, IGROV-ET; details: 48 hours exposure; for CC50: read-out: LC50 IGROV-ET
SK-MEL-28 = test: SRB colorimetric assay of cell growth and viability, SK-MEL-28; details: 48 hours exposure; for CC50: read-out: LC50 MEL-28
IGROV-1 = test: SRB colorimetric assay of cell growth and viability, IGROV-1; details: 48 hours exposure
HT-29 = test: SRB colorimetric assay of cell growth and viability, HT-29; details: 48 hours exposure; for GI50: read-out: GI50 HT-29; for CC50: read-out: LC50 HT-29
LoVo-Dox = test: SRB colorimetric assay of cell growth and viability, LoVo-Dox; details: 48 hours exposure; for CC50: read-out: LC50 LOVO-DOX
Method in brief: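 Here, cells grow drug-free for 18 h, then receive sample dilutions from 10 down to 10^−8 μg/mL for 48 h at 37° C. Protein-bound SRB is solubilized in Tris and quantified at 490 nm.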

K-562 = test: SRB colorimetric assay of cell growth and viability, K-562; details: 48 hours exposure; for CC50: read-out: LC50 K-562
A-549 = test: SRB colorimetric assay of cell growth and viability, A-549; details: 48 hours exposure; for GI50: read-out: GI50 A-549; for CC50: read-out: LC50 A-549
DU-145 = test: SRB colorimetric assay of cell growth and viability, DU-145; details: 48 hours exposure
LNCaP = test: SRB colorimetric assay of cell growth and viability, LNCaP; details: 48 hours exposure; for GI50: read-out: GI50 LN-caP; for CC50: read-out: LC50 LN-caP
PANC-1 = test: SRB colorimetric assay of cell growth and viability, PANC-1; details: 48 hours exposure; for CC50: read-out: LC50 PANC-1
LoVo = test: SRB colorimetric assay of cell growth and viability, LoVo; details: 48 hours exposure; for CC50: read-out: LC50 LOVO

Structure (SMILES) | TGI SKOV-3 (SK-OV-3) [Molar] | GI50 (SK-OV-3) [µM] | CC50 (SK-OV-3) [µM] | GI50 (IGROV-ET) [µM] | TGI IGROV-ET (IGROV-ET) [Molar] | CC50 (IGROV-ET) [µM] | GI50 (SK-MEL-28) [µM] | TGI MEL-28 (SK-MEL-28) [Molar] | CC50 (SK-MEL-28) [µM] | GI50 (IGROV-1) [µM] | LC50 (concentration causing 50% net cell killing) (IGROV-1) [µM] | TGI IGROV (IGROV-1) [Molar] | TGI HT-29 (HT-29) [Molar] | GI50 (HT-29) [µM] | CC50 (HT-29) [µM] | GI50 (LoVo-Dox) [µM] | TGI LOVO-DOX (LoVo-Dox) [Molar] | GI50 (K-562) [µM] | TGI K-562 (K-562) [Molar] | CC50 (K-562) [µM] | also measured
C/C=C1\NC(=O)[C@H](Cc2ccccc2)NC(=O)[C@@H](C(C)C)NC(=O)[C@@H]([C@@H](C)CC)NC(=O)[C@H](NC(=O)[C@H](NC(=O)[C@H](CCCN)NC(=O)[C@H]2CCCN2C(=O)[C@H](NC(=O)CCCCCCCCCCCCC)C(C)C)[C@@H](C)CC)[C@@H](C)OC(=O)[C@H](C(C)C)NC1=O [Compound 32, [noVal^11, noThr^12, noD-Val^13, Mst^14]-KF] (Myristoyl-[dV][dP][Orn][d(aIle)][d(aThr)][d(aIle)][dV]F[Dhb]V; ester 5-C) | 6.27E−06 | 2.34 | 7.83 | 2.06 | 3.26E−06 | 5.16 | 2.08 | 3.63E−06 | 6.34 | 2.29 | 5.51 | 3.56E−06 | 7.83E−06 | 7.66 | 7.83 | 2.15 | 3.66E−06 | 1.91 | 4.21E−06 | 7.83 | CC50 (LoVo-Dox): 6.21 µM; TGI A-549 (A-549): 7.83E−06 Molar; GI50 (A-549): 5.19 µM; CC50 (A-549): 7.83 µM; GI50 (DU-145): 2.12 µM; LC50 (concentration causing 50% net cell kill) (DU-145): 6.81 µM; TGI DU-145 (DU-145): 3.80E−06 Molar; TGI LN-caP (LNCaP): 3.08E−06 Molar; GI50 (LNCaP): 1.42 µM; CC50 (LNCaP): 6.67 µM; GI50 (PANC-1): 1.78 µM; TGI PANC-1 (PANC-1): 3.12E−06 Molar; CC50 (PANC-1): 5.49 µM; GI50 (LoVo): 7.83 µM; TGI LOVO (LoVo): 7.83E−06 Molar; CC50 (LoVo): 7.83 µM
C/C=C1\NC(=O)[C@H](Cc2ccccc2)NC(=O)[C@@H](C(C)C)NC(=O)[C@@H]([C@@H](C)CC)NC(=O)[C@H](NC(=O)[C@H](NC(=O)[C@H](CCC(=O)O)NC(=O)[C@H]2CCCN2C(=O)[C@H](NC(=O)[C@@H](NC(=O)[C@@H](NC(=O)[C@H](NC(=O)CCCC(C)C)C(C)C)[C@@H](C)O)C(C)C)C(C)C)[C@@H](C)CC)[C@@H](C)OC(=O)[C@H](C(C)C)NC1=O [Compound 4, [Glu^8]-KF] ({Hexanoyl(5-Me)}-[dV]TV[dV][dP]E[d(aIle)][d(aThr)][d(aIle)][dV]F[Dhb]V; ester 8-C) | 5.85E−07 | 0.195 | 2.26 | 0.817 | 1.69E−06 | 3.52 | 2.95 | 6.70E−06 | 6.7 | 0.49 | 3.31 | 1.29E−06 | 2.00E−06 | 0.884 | 4.55 | 0.757 | 1.77E−06 | 2.11 | 5.10E−06 | 6.7 | CC50 (LoVo-Dox): 4.15 µM; TGI A-549 (A-549): 4.02E−06 Molar; GI50 (A-549): 1.77 µM; CC50 (A-549): 6.7 µM; GI50 (DU-145): 1.03 µM; LC50 (concentration causing 50% net cell kill) (DU-145): 3.88 µM; TGI DU-145 (DU-145): 2.00E−06 Molar; TGI LN-caP (LNCaP): 1.19E−06 Molar; GI50 (LNCaP): 0.371 µM; CC50 (LNCaP): 3.62 µM; GI50 (PANC-1): 1.82 µM; TGI PANC-1 (PANC-1): 3.46E−06 Molar; CC50 (PANC-1): 6.6 µM; GI50 (LoVo): 0.348 µM; TGI LOVO (LoVo): 6.45E−07 Molar; CC50 (LoVo): 2.65 µM
C/C=C1\NC(=O)[C@H](Cc2ccccc2)NC(=O)[C@@H](C(C)C)NC(=O)[C@@H]([C@@H](C)CC)NC(=O)[C@H](NC(=O)[C@H](NC(=O)[C@H](CCCN)NC(=O)[C@H]2CCCN2C(=O)[C@H](NC(=O)[C@@H](NC(=O)[C@@H](NC(=O)[C@H](NC(=O)CCCCC(C)(F)F)C(C)C)[C@@H](C)O)C(C)C)C(C)C)[C@@H](C)CC)[C@@H](C)OC(=O)[C@H](C(C)C)NC1=O [Compound 28, [6,6-dFHep^14]-KF] | 3.36E−07 | 0.145 | 1.01 | 0.228 | 3.59E−07 | 0.568 | 1.47 | 2.55E−06 | 4.41 | 0.334 | 2.55 | 7.86E−07 | 1.54E−06 | 0.649 | 3.63 | 0.172 | 3.18E−07 | 1.88 | 2.99E−04 | 4.75 | TGI A-549 (A-549): 1.04E−06 Molar; GI50 (A-549): 0.328 µM; CC50 (A-549): 4.25 µM; GI50 (DU-145): 0.215 µM; LC50 (concentration causing 50% net cell kill) (DU-145): 2.09 µM; TGI DU-145 (DU-145): 5.59E−07 Molar; TGI LN-caP (LNCaP): 1.09E−06 Molar; GI50 (LNCaP): 0.363 µM; CC50 (LNCaP): 3.1 µM; GI50 (PANC-1): 1.48 µM; TGI PANC-1 (PANC-1): 2.52E−06 Molar; CC50 (PANC-1): 4.3 µM; GI50 (LoVo): 0.196 µM; TGI LOVO (LoVo): 3.70E−07 Molar; CC50 (LoVo): 0.872 µM
